From patent publication US20240117305A1, “THREE-DIMENSIONAL PRINTABLE BIOCOMPATIBLE PHOTOPOLYMERIZABLE INK WITH SPATIALLY CONTROLLED DUAL PROTEIN MOTIFS FOR CO-CULTURE FUNCTIONALITY” (Rowan University, priority 2022, published 2024)
“Also recorded” adds a separate entry of the source.

What was measured:
[1] = test system: hCMEC/D3 endothelial cells; assay: Endothelial spreading and cell coverage in peptide-lined DLP-printed channels; type: cell-based; details: for Cell spreading and vessel coverage over time: 650 μm channels in photoink formulation no. 1, 5-day static culture, images on days 1, 3, 5; for Percent cell coverage within the vessel versus control / other motifs: 650 μm channels in photoink formulation no. 1, static culture, day 5, peptide clicked to channel wall; for Microenvironment for vessel coverage and development of barrier function: overall statement covering coverage and ZO-1 results in hCMEC/D3 endothelial cells
Procedure: Radicalized driven thiol-ene reaction schemes were utilized for functionalizing biomaterials. Several thiolated peptide cell binding motifs were functionalized to the walls of the printed geometry. Fluorescent labeled peptides were first synthesized via peptide synthesizer. […] Lyophilized RFP and GFP were both brought to room temperature and diluted to 10 mg/mL in 1×PBS. The bifurcation geometry print included RFP peptide in the bulk solution at 1:1000, while 300 μL of GFP was flowed into the channel at 10 μg/mL and hit with […] for 180 seconds. Process was repeated in the same manner for channel functionalization of the ‘RU’ geometry. Similarly, HAVDI(HAVDIGGGC), derived from N-Cadherein and RGD(GCGYGRGDSPG), derived from multiple ECM proteins, were synthesized and purchased from Genscript. IKVAV(GCGGGIKVAVG), a laminin derived motif, was fabricated using a peptide synthesizer. 5 mg/mL Irgacure 12959 was diluted to 0.5 mg/mL in PBS and thiolated peptide was added to a final concentration of 5 mM. 50 μL of peptide solution was injected into the channel and 10 mW/cm^2 was radiated onto surface of gel for 60 seconds. This process was repeated after inverting the gel to assure full coverage of the peptide onto the surface of the channel. Gels were then washed out 2× for 30 minutes in PBS to remove any unbound peptide.
(§1) P23 hCMEC/D3 endothelial cells (with and without transfection with RFP-LifeAct) were cultured until 90% confluent, trypsinized, and suspended at a concentration of 50M/mL for hydrogel cell seeding. Hydrogels were seeded with 22 μL of 12.5 M/mL and placed face up at the bottom of six well plate with 1 mL of EGM-2 incubated at 37° C./5% CO2. The cell seeding technique included 90° rotations every 30 minutes with additional seeding every hour for 4 hours. Following initial seeding, 8.8 μL of 12.5 M/mL HCMEC/D3 were injected into the bifurcation geometry for vessel coating. After 4 hours, hydrogels were kept in static culture for 4-5 days in EGM-2.
(§2) In order to quantify cell spreading, a z-projection was used with an arbitrary ROI to quantify the percentage of the area covered by cells. Three different ROI's were analyzed to provide an average and standard deviation. ZO-1 intensity was quantified in both static and perfused culture at different locations within the branched network. The image intensity along approximately 70-μm lines across the image plane were plotted to quantify ZO-1 localization to cell-cell junctions. […] ImageJ was used for all image processing and analysis.
Imaging was performed on a Nikon Eclipse Ti Confocal Microscope to assess cell spreading, morphology, and proliferation in 3D overtime within these microvessels. Images were taken on days 1, 3, and 5 following cell seeding.
(§3) A two-factor ANOVA was calculated to test for significance in the two variables of time and peptide coating in the cell spreading assay. In order to test for significance in the ZO-1 localization experiments, a one-factor ANOVA was calculated for each peptide condition tested.

[2] = test system: ZO-1 localization in hCMEC/D3 cells; assay: ZO-1 localization to cell-cell junctions (tight junction integrity) in peptide-lined vessels; type: cell-based; details: for ZO-1 staining localization to cell-cell junctions (images): photoink formulation no. 1, static conditions for five days; for Root mean square ZO-1 intensity quantification (barrier formation): photoink formulation no. 1, static culture day 5, p<0.05
Procedure: as §1
Vessels cultured in static conditions for four days were hooked up to pressure driven flow using an Arduino-controlled peristaltic pump. Gels were ported inside a perfusion chamber with 20-gauge PTFE catheter tips connected to luer locks with tygon tubing (McMaster Carr). Vessels were connected in parallel through a dampener with EGM-2 for 24 hours at a flow rate of ˜5 mL/min or 44.4 dyne/cm^2 shear stress in the branches and 1.68 dyne/cm^2 in the region adjacent to the bifurcation.
Following static and/or flow culture within the vessels, hydrogels were washed 3× in PBS and placed in 4% paraformaldehyde for 20 minutes. Gels were washed in PBS and a primary monoclonal antibody for zonula-occluden-1 (ZO-1) (Cell Signaling Technologies) was added at 1:250 in PBS and incubated at 4° C. for 48 hours. Gels were then washed for 10 minutes 3× in PBS on the rocker. Far red-labeled ZO-1 secondary antibody (Cell Signaling Technologies) was diluted 1:250 in PBS along with Hoesch at 2 ug/ml. Solution was added to the gels and incubated for 1 hour at 37° C. Gels were then washed and imaged on a Nikon Eclipse Ti Confocal microscope.
as §2, §3

Row | Sequence | Cell spreading and vessel coverage over time [1] | Percent cell coverage within the vessel versus control / other motifs [1] | Microenvironment for vessel coverage and development of barrier function [1] | ZO-1 staining localization to cell-cell junctions (images) [2] | Root mean square ZO-1 intensity quantification (barrier formation) [2] | Endothelial coverage of the branched (bifurcation) topology ([1]; bifurcation vessel, endothelial cells only, before seeding astrocytes) | ZO-1 localization in response to flow ([2]; network topology designed to induce flow separation, fully developed versus disturbed flow)
1 | GCGGGIKVAVG [thiolated laminin derived motif, covalently clicked to channel walls] | exhibited no noticeable difference in vessel coverage throughout the 5-day static culture | significantly improve endothelialization compared to other motifs; also recorded: significantly higher coverage than the control condition | provide the most favorable microenvironment for both vessel coverage and development of barrier function | increase zonula occulends-1 (“ZO-1”) localization to cell-cell junctions; also recorded: exhibited more ZO-1 localization to the cell-cell junctions | significantly higher barrier formation than the RGD and control-lined channels | – | –
2 | GCGYGRGDSPG [thiolated peptide motif derived from multiple ECM proteins, clicked to channel walls or in the bulk photoink] | exhibited immediate spreading on PEG-norbornene and progressed linearly overtime; also recorded: increased cell spreading | – | – | the ZO-1 was the most diffuse in this condition; also recorded: did not result in the highest ZO-1 localization to cell-cell junctions | – | full channel coverage was possible | no significant difference in ZO-1 localization in response to fully developed and disturbed flow
3 | HAVDIGGGC | over the course of the experiment cells began to spread and cover the walls; also recorded: took several days to spread and cover the vessel wall | significantly improve endothelialization compared to other motifs; also recorded: significantly higher coverage than the control condition | provide the most favorable microenvironment for both vessel coverage and development of barrier function | increase zonula occulends-1 (“ZO-1”) localization to cell-cell junctions; also recorded: ZO-1 junctional staining was the clearest; also recorded: induced the highest ZO-1 localization to the cell-cell junctions | significantly higher barrier formation than the RGD and control-lined channels | – | –
